What follows are molecules tested on Ctenocephalides felis (cat flea) (assay: flea membrane feed test). Conditions: in vitro membrane feed; adult fleas fed 2 hours on citrated dog blood containing compound, stored overnight, percentage of fleas killed; dose responses repeated n=5.
Method: The flea membrane feed test is used to measure the biological activities of the compounds claimed. The assay involves in vitro testing against Ctenocephalides felis conducted according to the following general procedure.
Fleas are cultured in vitro using dog blood. 25-30 adult Ctenocephalides felis (cat flea) were collected and placed in a test chamber (50 ml polystyrene tube with fine nylon mesh sealing the end). Citrated dog blood was prepared by adding aqueous sodium citrate solution (10 ml, 20% w/v, 20 g sodium citrate in 100 ml water) to dog blood (250 ml). Test compounds were dissolved in dimethylsulfoxide to give a working stock solution of 4 mg/ml. The stock solution (12.5 μl) was added to citrated dog blood (5 ml) to give an initial test concentration of 10 μg/ml. For testing at 30 μg/ml, working stock solutions of 12 mg/ml were prepared.
Citrated dog blood containing the test compound (5 ml, 10 μg/ml) was placed into a plastic Petri dish lid, which was kept at 37° C. on a heated pad. Parafilm was stretched over the open top to form a tight membrane for the fleas to feed through. The test chamber containing the fleas was placed carefully onto the parafilm membrane and the fleas commenced feeding.
The fleas were allowed to feed for 2 hours and the test chambers were then removed and stored overnight at room temperature.
The fleas were observed and the percentage of fleas killed recorded. Compounds were initially tested at 10 μg/ml, wherefrom relevant dose responses (100, 30, 10, 3, 1, 0.3, 0.1 μg/ml) were conducted and repeated n=5. Data was plotted to generate ED80, ED90 & ED95 values.

Point of comparison: `CS(=O)(=O)N(c1c(C#N)nn(-c2c(Cl)cc(C(F)(F)F)cc2Cl)c1N)S(=O)(=O)c1ccc(F)cc1F` [Example 84, N-{5-amino-3-cyano-1-[2,6-dichloro-4-(trifluoromethyl)phenyl]-1H-pyrazol-4-yl}-2,4-difluoro-N-(methylsulfonyl)benzenesulfonamide], “Flea feed ED80 results” value 3 µg/mL. Against it:
- CN(c1cn(-c2c(Cl)cc(C(F)(F)F)cc2Cl)nc1C#N)S(=O)(=O)C(F)(F)F [Example 27, N-{3-cyano-1-[2,6-dichloro-4-(trifluoromethyl)phenyl]-1H-pyrazol-4-yl}-1,1,1-trifluoro-N-methyl methanesulfonamide] — 30-fold lower, 0.1 µg/mL
- CS(=O)(=O)N(CC#N)c1c(C#N)nn(-c2c(Cl)cc(C(F)(F)F)cc2Cl)c1N [Example 5, N-{5-amino-3-cyano-1-[2,6-dichloro-4-(trifluoromethyl)phenyl]-1H-pyrazol-4-yl}-N-(cyanomethyl)methanesulfonamide] — 3-fold lower, 1 µg/mL

— patent US7803832B2, “N-(1-arylpyrazol-4L)sulfonamides and their use as parasiticides” (Pfizer Inc., priority 2004, dated 2010)
